PMC6332353, “New Sulphated Flavonoids from Wissadula periplocifolia (L.) C. Presl (Malvaceae)” (Molecules, 2015)
In brackets after ≈: the same amount, converted by molar mass.

Key:
[1] = system: human glioma cancer cell line (UVW); assay: alamarBlue cytotoxicity assay, UVW cells; format: cell-based; settings: tumour cell line, 24 h treatment, 0.4–100 µg/mL, mean ± SD
From the text: (§1) All media and supplements were obtained from Invitrogen (Paisley, UK). The following human cell lines were used in the current study: the human glioma cancer cell line (UVW) previously described, the prostate carcinoma cell line (PC-3M), the normal prostate epithelial cell line (PNT2A), and the normal foreskin fibroblast cell line (Hs27). All cell lines were obtained from in house stocks (UVW) or from stocks purchased from the ATCC (Rockville, MD, USA) and are routinely genetically verified and confirmed as free from mycoplasma contamination. UVW, PNT2A, and Hs27 cells were maintained in Eagle’s Minimum Essential Medium (MEM), RPMI 1640 Medium, and Dulbecco’s Modified Eagle’s Medium (DMEM), respectively. All media were supplemented with 10% v/v fetal bovine serum, penicillin (100 units/mL), streptomycin (100 μg/mL), Fungizone (2.5 μg/mL of amphotericin B), and L-glutamine (2 mM). The PC-3M cells were cultured in the same MEM medium as described for UVW cells with the addition of 1% v/v MEM Non-essential Amino Acids Solution, 1% v/v MEM Vitamin Solution, and 1mM sodium pyruvate. The cells were cultured at 37 °C in a humidified atmosphere of 5% CO2.
(§2) Each sample tested was dissolved in DMSO at 50 mg/mL and kept at −20 °C until extract preparation was proceeded. For the biological assays, the samples were diluted in culture medium to get the selected concentrations. The toxicity of the flavonoids on UVW, PC-3M, PNT2A, and Hs27 cells was assessed by the fluorometric measurement of metabolic activity using the AlamarBlue assay (Invitrogen). Briefly, cells were seeded on 96-well culture plates (3.3 × 10^3cells/well). […] Fluorescence was measured on a micro plate fluorescence reader (Spectramax Gemini XS, Molecular Devices, Sunnyvale, CA, USA) using an excitation wavelength of 560 nm and an emission wavelength of 590 nm. Cell viability was calculated and plotted as the percentage of metabolically active cells relative to the control. […]

[2] = system: prostate carcinoma cell line (PC-3M); assay: alamarBlue cytotoxicity assay, PC-3M cells; format: cell-based; settings: Homo sapiens, tumour cell line, 24 h treatment, 0.4–100 µg/mL, mean ± SD
From the text: as §1, §2

[3] = system: normal prostate epithelial cell line (PNT2A); assay: alamarBlue cytotoxicity assay, PNT2A cells; format: cell-based; settings: Homo sapiens, 24 h treatment, 0.4–100 µg/mL, mean ± SD
From the text: as §1, §2

[4] = system: normal foreskin fibroblast cell line (Hs27); assay: alamarBlue cytotoxicity assay, Hs27 cells; format: cell-based; settings: Homo sapiens, 24 h treatment, 0.4–100 µg/mL, mean ± SD
From the text: All media and supplements were obtained from Invitrogen (Paisley, UK). The following human cell lines were used in the current study: the human glioma cancer cell line (UVW) previously described, the prostate carcinoma cell line (PC-3M), the normal prostate epithelial cell line (PNT2A), and the normal foreskin fibroblast cell line (Hs27). All cell lines were obtained from in house stocks (UVW) or from stocks purchased from the ATCC (Rockville, MD, USA) and are routinely genetically verified and confirmed as free from mycoplasma contamination. UVW, PNT2A, and Hs27 cells were maintained in Eagle’s Minimum Essential Medium (MEM), RPMI 1640 Medium, and Dulbecco’s Modified Eagle’s Medium (DMEM), respectively. All media were supplemented with 10% v/v fetal bovine serum, penicillin (100 units/mL), streptomycin (100 μg/mL), Fungizone (2.5 μg/mL of amphotericin B), and L-glutamine (2 mM). […] The toxicity of the flavonoids on UVW, PC-3M, PNT2A, and Hs27 cells was assessed by the fluorometric measurement of metabolic activity using the AlamarBlue assay (Invitrogen). […] Fluorescence was measured on a micro plate fluorescence reader (Spectramax Gemini XS, Molecular Devices, Sunnyvale, CA, USA) using an excitation wavelength of 560 nm and an emission wavelength of 590 nm. Cell viability was calculated and plotted as the percentage of metabolically active cells relative to the control. […]

[5] = system: sarcoma 180; design: method as in earlier work; settings: tumours implanted in mice; cited from earlier work
[6] = system: carcinoma of Ehrlich tumours; design: method as in earlier work; settings: tumours implanted in mice; cited from earlier work
[7] = system: lung cancer A549; design: method as in PMID 25000464; settings: cited from earlier work

| SMILES | IC50 [1] [µg/mL] | IC50 [2] [µg/mL] | IC50 [3] [µg/mL] | IC50 [4] [µg/mL] | tumour growth inhibition, sarcoma 180 [5] | tumour growth inhibition, carcinoma of Ehrlich [6] | toxic effects on A549 cells (in words) [7] |
| --- | --- | --- | --- | --- | --- | --- | --- |
| COc1ccc(-c2cc(=O)c3c(O)cc(O)cc3o2)cc1 [acacetin] | 27.4 ± 1.09 (≈ 96.3 µM) | 21.1 ± 1.16 (≈ 74.3 µM) | 51.3 ± 1.09 (≈ 181 µM) | > 100 | – | – | – |
| COc1ccc(-c2cc(=O)c3c(O)cc(OC)c(O)c3o2)cc1 [7,4′-di-O-methylisoscutellarein] | 98.5 ± 1.13 (≈ 314 µM) | > 100 | 88.7 ± 1.13 (≈ 282 µM) | – | – | – | – |
| O=C(/C=C/c1ccc(O)cc1)OC[C@H]1O[C@@H](Oc2c(-c3ccc(O)cc3)oc3cc(O)cc(O)c3c2=O)[C@H](O)[C@@H](O)[C@@H]1O [tiliroside, kaempferol-3-O-b-D-(6′′-E-p-coumaroyl) glucopyranoside] | > 100 | 60.5 ± 1.12 (≈ 102 µM) | > 100 | – | significantly inhibited the growth | significantly inhibited the growth | toxic effects |
